Patent US12371454B2, “Cyclic peptide compound having Kras inhibitory action” (priority 2019, dated 2025)
Positions of bridges follow the written chain, without caps; N, C: chain ends. Non-standard residues stand in square brackets, D forms with d. Residues, ends and D or L forms follow the SMILES beside them. *: point of attachment. hPhe(3-Cl-4-CF3) = N[C@@H](CCc1ccc(C(F)(F)F)c(Cl)c1)C(=O)O; hPhe(3-F,4-CF3) = N[C@@H](CCc1ccc(C(F)(F)F)c(F)c1)C(=O)O; 3Oxa8azabicyclo(3.2.1)octane = C1CC2COCC1N2*; NMePhe(4-Me) = CN[C@@H](Cc1ccc(C)cc1)C(=O)O; NMeGly(cPent) = CN[C@H](C(=O)O)C1CCCC1; NMeCha = CN[C@@H](CC1CCCCC1)C(=O)O; NMeAhp(2) = CCCCC[C@H](NC)C(=O)O; NMeCba = CN[C@@H](CC1CCC1)C(=O)O; NMeChg = CN[C@H](C(=O)O)C1CCCCC1; NMeD = CN[C@@H](CC(=O)O)C(=O)O; NMeL = CN[C@@H](CC(C)C)C(=O)O; NMeV = CN[C@H](C(=O)O)C(C)C; Morpholide = C1CN(*)CCO1; NMeA = CN[C@@H](C)C(=O)O; Piperidide = C1CCN(*)CC1; Pyrrolidide = C1CCN(*)C1; Ac5c = NC1(C(=O)O)CCCC1; Aze = O=C(O)[C@@H]1CCN1; Ac3c = NC1(C(=O)O)CC1; Sar = CNCC(=O)O

What was measured:
[1] = target: T1, Kras and SOS1 (biotin-tagged human Kras loaded with GDP, His-tagged human SOS1) (Homo sapiens, UniProt P01116, G12D); assay: Protein-protein interaction inhibition between Kras and SOS1 (KrasGl2D-SOS PPI) using AlphaScreen; format: binding; details: AlphaScreen; biotin-tagged human Kras loaded with GDP, His-tagged human SOS1; read-out: KRAS G12D-SOS PPI IC50
T1 construct: made in house; host or cells: E. coli (stated for Kras only)
T1 sequence (P01116 1-188 isoform P01116-2 G12D): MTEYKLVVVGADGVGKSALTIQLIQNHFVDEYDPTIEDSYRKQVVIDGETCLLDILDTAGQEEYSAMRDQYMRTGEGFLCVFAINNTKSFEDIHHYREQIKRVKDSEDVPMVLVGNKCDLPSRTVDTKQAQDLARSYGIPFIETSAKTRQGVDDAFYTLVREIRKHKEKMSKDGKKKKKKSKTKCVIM
Outline: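 AlphaScreen format: Ni donor beads capture His-SOS1, streptavidin acceptor beads capture biotinylated Kras (E. coli-expressed, GDP-loaded post-purification). Excite 680 nm, read 520-620 nm.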

[2] = system: Human pancreatic cancer cell line AsPC-1; assay: Measurement of AsPC-1 cell growth inhibition (AsPC-1 CGI); format: cell-based; details: 96 h
Outline: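 AsPC-1 cells in 15% FBS RPMI-1640 were exposed to test compound for 96 hours at 37° C, with CellTiter-Glo as endpoint.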

SMILES	IC50 [1] [nM]	IC50 [2] [nM]
CC[C@H](C)[C@@H]1NC(=O)[C@H](CC(C)C)N(C)C(=O)C[C@@H](C(=O)N2CCCC2)N(C)C(=O)[C@H](C2CCCC2)N(C)C(=O)C2(CCCC2)NC(=O)[C@@H]2CCCN2C(=O)[C@H](CCc2ccc(C(F)(F)F)c(Cl)c2)NC(=O)CN(C)C(=O)[C@H](Cc2ccc(C)cc2)N(C)C(=O)[C@@H]2CCN2C(=O)[C@H](C)N(C)C1=O [Compound 1840] ([NMeL]I[NMeA][Aze][NMePhe(4-Me)][Sar][hPhe(3-Cl-4-CF3)]P[Ac5c][NMeGly(cPent)][NMeD]-Pyrrolidide; lactam N-11)	1.2	20 to 50
CC[C@H](C)[C@@H]1NC(=O)[C@H](CC(C)C)N(C)C(=O)C[C@@H](C(=O)N2CCCCC2)N(C)C(=O)[C@H](C2CCCCC2)N(C)C(=O)C2(CC2)NC(=O)[C@@H]2CCCN2C(=O)[C@H](CCc2ccc(C(F)(F)F)c(Cl)c2)NC(=O)CN(C)C(=O)[C@H](CC2CCCCC2)N(C)C(=O)CN(C)C(=O)CN(C)C1=O [Compound 1845] ([NMeL]I[Sar][Sar][NMeCha][Sar][hPhe(3-Cl-4-CF3)]P[Ac3c][NMeChg][NMeD]-Piperidide; lactam N-11)	0.84	100 to 500
CCCCC[C@H]1C(=O)N(C)CC(=O)N[C@@H](CCc2ccc(C(F)(F)F)c(Cl)c2)C(=O)N2CCC[C@H]2C(=O)NC2(CCCC2)C(=O)N(C)[C@@H](C2CCCCC2)C(=O)N(C)[C@H](C(=O)N2CCCCC2)CC(=O)N(C)[C@@H](CC(C)C)C(=O)N[C@@H]([C@@H](C)CC)C(=O)N(C)CC(=O)N(C)CC(=O)N1C [Compound 1846] ([NMeL]I[Sar][Sar][NMeAhp(2)][Sar][hPhe(3-Cl-4-CF3)]P[Ac5c][NMeChg][NMeD]-Piperidide; lactam N-11)	1.1	100 to 500
CC[C@H](C)[C@@H]1NC(=O)[C@H](C)N(C)C(=O)C[C@@H](C(=O)N2CCOCC2)N(C)C(=O)[C@H](C2CCCCC2)N(C)C(=O)C2(CCCC2)NC(=O)[C@@H]2CCCN2C(=O)[C@H](CCc2ccc(C(F)(F)F)c(Cl)c2)NC(=O)CN(C)C(=O)[C@H](CC2CCCCC2)N(C)C(=O)CN(C)C(=O)CN(C)C1=O [Compound 1847] ([NMeA]I[Sar][Sar][NMeCha][Sar][hPhe(3-Cl-4-CF3)]P[Ac5c][NMeChg][NMeD]-Morpholide; lactam N-11)	0.63	100 to 500
CC[C@H](C)[C@@H]1NC(=O)[C@H](CC(C)C)N(C)C(=O)C[C@@H](C(=O)N2CCCCC2)N(C)C(=O)[C@H](C2CCCC2)N(C)C(=O)C2(CCCC2)NC(=O)[C@@H]2CCCN2C(=O)[C@H](CCc2ccc(C(F)(F)F)c(Cl)c2)NC(=O)CN(C)C(=O)[C@H](Cc2ccc(C)cc2)N(C)C(=O)CN(C)C(=O)CN(C)C1=O [Compound 1850] ([NMeL]I[Sar][Sar][NMePhe(4-Me)][Sar][hPhe(3-Cl-4-CF3)]P[Ac5c][NMeGly(cPent)][NMeD]-Piperidide; lactam N-11)	0.6	20 to 50
CC[C@H](C)[C@@H]1NC(=O)[C@H](CC(C)C)N(C)C(=O)C[C@@H](C(=O)N2CCCCC2)N(C)C(=O)[C@H](CC2CCC2)N(C)C(=O)C2(CCCC2)NC(=O)[C@@H]2CCCN2C(=O)[C@H](CCc2ccc(C(F)(F)F)c(Cl)c2)NC(=O)CN(C)C(=O)[C@H](CC2CCCCC2)N(C)C(=O)[C@@H]2CCN2C(=O)[C@H](C)N(C)C1=O [Compound 1860] ([NMeL]I[NMeA][Aze][NMeCha][Sar][hPhe(3-Cl-4-CF3)]P[Ac5c][NMeCba][NMeD]-Piperidide; lactam N-11)	11	100 to 500
CC[C@H](C)[C@@H]1NC(=O)[C@H](CC(C)C)N(C)C(=O)C[C@@H](C(=O)N(C)C)N(C)C(=O)[C@H](C(C)C)N(C)C(=O)C2(CCCC2)NC(=O)[C@@H]2CCCN2C(=O)[C@H](CCc2ccc(C(F)(F)F)c(Cl)c2)NC(=O)CN(C)C(=O)[C@H](Cc2ccc(C)cc2)N(C)C(=O)CN(C)C(=O)CN(C)C1=O [Compound 1867] ([NMeL]I[Sar][Sar][NMePhe(4-Me)][Sar][hPhe(3-Cl-4-CF3)]P[Ac5c][NMeV][NMeD]-NMe2; lactam N-11)	0.73	100 to 500
CC[C@H](C)[C@@H]1NC(=O)[C@H](CC(C)C)N(C)C(=O)C[C@@H](C(=O)N2C3CCC2COC3)N(C)C(=O)[C@H](C2CCCCC2)N(C)C(=O)C2(CCCC2)NC(=O)[C@@H]2CCCN2C(=O)[C@H](CCc2ccc(C(F)(F)F)c(Cl)c2)NC(=O)CN(C)C(=O)[C@H](Cc2ccc(C)cc2)N(C)C(=O)CN(C)C(=O)CN(C)C1=O [Compound 1869] ([NMeL]I[Sar][Sar][NMePhe(4-Me)][Sar][hPhe(3-Cl-4-CF3)]P[Ac5c][NMeChg][NMeD]-{3Oxa8azabicyclo(3.2.1)octane}; lactam N-11)	0.76	50 to 100
CC[C@H](C)[C@@H]1NC(=O)[C@H](CC(C)C)N(C)C(=O)C[C@@H](C(=O)N2CCCC2)N(C)C(=O)[C@H](C2CCCCC2)N(C)C(=O)C2(CCCC2)NC(=O)[C@@H]2CCCN2C(=O)[C@H](CCc2ccc(C(F)(F)F)c(F)c2)NC(=O)CN(C)C(=O)[C@H](CC2CCCCC2)N(C)C(=O)CN(C)C(=O)CN(C)C1=O [Compound 1870] ([NMeL]I[Sar][Sar][NMeCha][Sar][hPhe(3-F,4-CF3)]P[Ac5c][NMeChg][NMeD]-Pyrrolidide; lactam N-11)	0.74	20 to 50
